Assay results as given in PubChem BioAssay (NCI).
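Results reflect a 48-hour exposure of cells in 96-well plates to compound at five concentrations. At the GI50, growth is halved. Definition used: TGI = concentration required for complete inhibition of growth.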

Legend:
Experiment in all cases: NCI anticancer screen, dose series, 48 h
786-0 renal = tested on: 786-0 renal
A549 NSCLC = tested on: A549 NSCLC
DU-145 prostate = tested on: DU-145 prostate
HCT-116 colon = tested on: HCT-116 colon
IGROV1 ovarian = tested on: IGROV1 ovarian
LOX IMVI melanoma = tested on: LOX IMVI melanoma
NCI-H226 lung = tested on: NCI-H226 lung
OVCAR-8 ovarian = tested on: OVCAR-8 ovarian
SK-OV-3 ovarian = tested on: SK-OV-3 ovarian
U251 CNS = tested on: U251 CNS

| Structure (SMILES) | GI50 (786-0 renal) [µM] | TGI (786-0 renal) [µM] | GI50 (A549 NSCLC) [µM] | TGI (A549 NSCLC) [µM] | GI50 (DU-145 prostate) [µM] | TGI (DU-145 prostate) [µM] | GI50 (HCT-116 colon) [nM] | TGI (HCT-116 colon) [µM] | GI50 (IGROV1 ovarian) [nM] | TGI (IGROV1 ovarian) [µM] | GI50 (LOX IMVI melanoma) [nM] | TGI (LOX IMVI melanoma) [µM] | GI50 (NCI-H226 lung) [nM] | TGI (NCI-H226 lung) [µM] | GI50 (OVCAR-8 ovarian) [µM] | TGI (OVCAR-8 ovarian) [µM] | GI50 (SK-OV-3 ovarian) [µM] | TGI (SK-OV-3 ovarian) [µM] | GI50 (U251 CNS) [nM] | TGI (U251 CNS) [µM] |
| --- | --- | --- | --- | --- | --- | --- | --- | --- | --- | --- | --- | --- | --- | --- | --- | --- | --- | --- | --- | --- |
| N#C/C(=C\c1ccsc1)c1nc2ccccc2o1 | 8.4 | > 100 | > 100 | > 100 | 84.6 | > 100 | 35700 | > 100 | 33300 | > 100 | > 100000 | > 100 | > 100000 | > 100 | > 100 | > 100 | 40.7 | > 100 | 37200 | > 100 |
| CC(C)(C)C(=O)OCC1C(=O)OCC1C(=O)N1Cc2cc3ccccc3nc2C1 (stereo not given) | – | 7.69 | – | 30.8 | – | 30.2 | – | 5.28 | – | 29.1 | – | 15.3 | – | 14 | – | 14.8 | – | 29.8 | – | 20.6 |
| Cn1ncnc1[C@H]1c2n[nH]c(=O)c3cc(F)cc(c23)N[C@@H]1c1ccc(F)cc1 | > 100 | > 100 | 6.96 | > 100 | 3.59 | > 100 | > 80400 | > 100 | 74100 | > 100 | 4750 | > 100 | > 100000 | > 100 | > 100 | > 100 | > 100 | > 100 | 1650 | > 100 |
| O=C1C(Nc2ccc(Cl)cc2)=C(I)C(=O)c2ncccc21 | 0.91 | 2.25 | 2.75 | 9.48 | 1.37 | 3.37 | 305 | 1.18 | 359 | 1.41 | 624 | 2.11 | 1520 | 3.03 | 1.51 | 3.12 | 4.28 | 18 | 1480 | 2.8 |
| O=C(Nc1cccc(-n2cc(-c3ccncc3)c(-c3ccc(Cl)c(O)c3)n2)c1)Nc1cc(C(F)(F)F)cc(C(F)(F)F)c1 | 1.02 | 2.35 | 0.313 | 1.38 | 0.963 | 2.94 | 487 | 1.24 | 795 | 2.55 | 712 | 1.4 | 1200 | 5.14 | 0.563 | 5.92 | 1.18 | 2.83 | 484 | 1.15 |
| O=C1Nc2ccc(Br)cc2C1=Nc1cccnc1 | – | 44.7 | – | > 100 | – | > 100 | – | 44.5 | – | 60.7 | – | 34.8 | – | > 100 | – | 51.7 | – | > 100 | – | 24.8 |
| CSC1=C(N)C(=O)c2[nH]cc(CO)c2C1=N | 1.44 | 3.24 | 0.136 | 0.331 | 0.166 | 0.308 | 256 | 0.666 | 225 | 0.521 | 134 | 0.283 | 206 | 0.45 | 0.275 | 0.948 | 0.623 | 1.85 | 181 | 0.347 |
| CC1CCC/C1=C(/I)C(=O)c1ccccc1 (stereo not given) | – | > 100 | – | > 100 | – | > 100 | – | > 100 | – | > 100 | – | 92.7 | – | > 100 | – | > 100 | – | > 100 | – | > 100 |
| Nc1ncnc2c1N=C(c1ccc3c(c1)OCO3)CC(c1ccc([N+](=O)[O-])cc1)N2 (stereo not given) | 79.1 | > 100 | 69.7 | > 100 | 46.3 | > 100 | 18200 | > 100 | 68.4 | 3.24 | 22900 | > 100 | > 100000 | > 100 | 55.9 | > 100 | > 100 | > 100 | 49300 | > 100 |
| O=C(Nc1ccc(Br)cc1F)c1cc(I)ccc1O | 3.32 | 11.4 | 3.17 | > 100 | 3.89 | > 100 | 2790 | 11.4 | 1950 | > 100 | 2780 | 14.3 | 1900 | 5.48 | 3.01 | 15.9 | 2.13 | 7.95 | 2670 | > 100 |
| Cc1c(C(=O)Nc2ccccc2)sc2ncn(Cc3cccc(Cl)c3)c(=O)c12 | 29.6 | > 100 | 29.6 | 93.1 | 34.9 | > 100 | 19200 | > 100 | 15600 | > 100 | 57300 | > 100 | 10600 | 41.6 | 28.7 | 89.1 | > 100 | > 100 | 34000 | > 100 |
| O=C(/C=C/Sc1cc(C(F)(F)F)cc(C(F)(F)F)c1)c1ccc(Cl)cc1 | 2.66 | 9.84 | 16.1 | 32.8 | 12.3 | 25.1 | 1830 | 4.09 | 2380 | 6.55 | 1430 | 2.73 | 2490 | 7.32 | 9.9 | 45.3 | 15.1 | 31.3 | 4650 | 16.2 |
| NCCCC[C@@H]1NC(=O)[C@H]2CCCN2C(=O)[C@H](Cc2ccccc2)CNC(=O)[C@H](Cc2ccccc2)NC1=O | > 37.5 | > 37.5 | > 37.5 | > 37.5 | > 37.5 | > 37.5 | > 37500 | > 37.5 | > 37500 | > 37.5 | > 37500 | > 37.5 | > 37500 | > 37.5 | > 37.5 | > 37.5 | > 37.5 | > 37.5 | > 37500 | > 37.5 |
